Measurements: ChEMBL document CHEMBL1139632, “Design and synthesis of new 2-substituted-5-(2-benzylthiophenyl)-1,3,4-oxadiazoles as benzodiazepine receptor agonists” (Bioorg Med Chem Lett, 2005)

Legend:
Mus musculus [1] = species on record: Mus musculus; assay: Lethal dose of in mice; assay type: functional
Mus musculus [2] = assay: Ability of the compound to protect mice against maximal electric shock (MES) induced convulsion in the presence of 10 mg/kg flumazenil; Range 54.9-102.9; assay type: functional
Mus musculus [3] = assay: Ability of the compound to protect mice against pentylenetetrazole induced convulsion in the presence of 10 mg/kg flumazenil; Ranges 60.1-135.9; assay type: functional
[4] = Lethal dose in mice; assay type: toxicity; settings: mouse, in vivo

Nc1nnc(-c2ccccc2SCc2ccc(F)cc2)o1
LD50 (Mus musculus [1]): > 300 mg/kg
ED50 (Mus musculus [2]): > 100 mg/kg
ED50 (Mus musculus [3]): 29.1 mg/kg

Sc1nnc(-c2ccccc2SCc2ccccc2)o1
LD50 (Mus musculus [1]): > 300 mg/kg
ED50 (Mus musculus [2]): > 100 mg/kg
ED50 (Mus musculus [3]): > 100 mg/kg

c1ccc(CSc2nnc(-c3ccccc3SCc3ccccc3)o2)cc1
LD50 (Mus musculus [1]): > 300 mg/kg
ED50 (Mus musculus [2]): > 100 mg/kg
ED50 (Mus musculus [3]): > 100 mg/kg

CN1C(=O)CN=C(c2ccccc2)c2cc(Cl)ccc21 [DIAZEPAM]
ED50 (Mus musculus [2]): 1.8 mg/kg
ED50 (Mus musculus [3]): 1.4 mg/kg

Nc1nnc(-c2ccccc2SCc2ccccc2)o1
ED50 (Mus musculus [2]): 43.3 mg/kg
ED50 (Mus musculus [3]): 89.2 mg/kg
LD50 [4]: > 300 mg/kg

Nc1nnc(-c2ccccc2SCc2ccc(Cl)cc2)o1
LD50 (Mus musculus [1]): > 300 mg/kg
ED50 (Mus musculus [2]): > 100 mg/kg
ED50 (Mus musculus [3]): > 100 mg/kg

CSc1nnc(-c2ccccc2SCc2ccccc2)o1
LD50 (Mus musculus [1]): > 300 mg/kg
ED50 (Mus musculus [2]): > 100 mg/kg
ED50 (Mus musculus [3]): 93.2 mg/kg

CCSc1nnc(-c2ccccc2SCc2ccccc2)o1
LD50 (Mus musculus [1]): > 300 mg/kg
ED50 (Mus musculus [2]): > 100 mg/kg
ED50 (Mus musculus [3]): > 100 mg/kg
